From publication PMC8840040, “Pharmacokinetic Characterization of the DDAH1 Inhibitors ZST316 and ZST152 in Mice Using a HPLC-MS/MS Method” (Molecules, 2022)

test: Urinary metabolites in 24 h urine by HPLC-MS/MS; assay type: in vivo, FVB mice; conditions: after intravenous ZST152, total dose 1.410 mg, mouse #1, 24 h urine
Protocol: The assessment of the urinary elimination after oral and intravenous administration, in the urine fraction collected 24 h post dose, is reported in Table 6. […] To further investigate this issue, we searched for the presence of urinary metabolites in the 24 h urine samples in one mouse per treatment group. We identified at least eight molecules most likely originating from the parent compounds (Table 7; see Supplementary Figure S1 for the hypothesized structures).
Mice were treated with ZST316 and ZST152 using a dose of 60 mg/Kg (oral gavage) and 30 mg/Kg (intravenous bolus). For pharmacokinetic sampling, blood was collected at 15 and 30 min, and 1, 3, 8, and 24 h post dose. Three mice were analyzed per each time point. After the animals were anesthetized with isoflurane, the blood was drained from the retro-orbital plexus into heparinized tubes, and then centrifuged for 10 min at 4000× g at 4 °C to separate plasma. A 24-h urine fraction was collected in three mice for each drug and route of administration. Plasma and urine samples were stored at −20 °C until analysis by HPLC-MS/MS.
[…] chromatography was performed using a series 200 HPLC system (Perkin Elmer, Waltham, MA, USA) under gradient conditions with separation on a HILIC column, 3 µm, 100 A, 2.1 × 150 mm (Waters, Milford, MA, USA), coupled with a 3 µm, 3.9 × 5.0 mm guard column of the same material at the flow rate of 0.2 mL/min. Gradient features: 10% mobile phase (MP) A (NH4HCO2 10 mM, 10% CH3CN, 0.1% HCOOH) and 90% MP B (CH3CN, 0.1% HCOOH) as the initial constant condition; then to 90% MP A in 6 min and the constant condition for 1.5 min. Return to the start condition in 0.5 min and conditioning for 5.5 min. Total run time: 13.5 min. Mass spectrometric detection was performed using an API 4000 triple quadrupole mass spectrometer (SCIEX, Framingham, MA, USA) supplied with a Turbo Ion Spray source set at 350 °C and −4200 V, analyzing biological samples with electrospray ionization (ESI) operating in negative ion mode. Purified air was used as nebulizer gas (Gas 1) and heater gas (Gas 2) and N2 was used as curtain gas and collision activated dissociation gas. They were set to 40, 50, 20, and 4 instrument units (psi), respectively. The declustering potential (DP) was set at −119 V and the collision exit potential (CXP) at –10 V. All parameters of the source were defined by direct infusion of ZST316 and ZST152 1 µg/mL in mobile phase B. The final quantification was carried out in Selected Reaction Monitoring (SRM) with the following transitions: m/z 307.9 → 208.0 (collision energy of −29.5 eV) for ZST316 and m/z 271.9 → 170.9 (collision energy −24.7 eV) for ZST152 (Figure 2 and Figure 3). Data were processed with the software package Analyst 1.6.2 (AB SCIEX).

| SMILES | % of Dose recovered in urine [%] | Amount Recovered in urine [µg] |
| --- | --- | --- |
| COCCNC(=N)N [M1] | 0.039 | 0.55 |
| COCCNC(=N)NCCCC=O [M2] | 9.05 | 128 |
| COCCNC(=N)NCCCCO [M3] | 0.19 | 2.62 |
| COCCNC(=N)NCCCC(=O)O [M4] | 6.6 | 93.3 |
| COCCNC(=N)NCCC[C@H](N)C=NO [M6] | 0.10 | 1.48 |
| COCCNC(=N)NCCC[C@H](N)C(=O)O [M7] | 0.13 | 1.77 |

same assay, conditions: after intravenous ZST316, total dose 1.326 mg, mouse #1, 24 h urine

| SMILES | % of Dose recovered in urine [%] | Amount Recovered in urine [µg] |
| --- | --- | --- |
| COCCNC(=N)N [M1] | 0.017 | 0.23 |
| COCCNC(=N)NCCCC(=O)O [M4] | 0.66 | 8.71 |
| COCCNC(=N)NCCC[C@H](N)C(=O)O [M7] | 6.5 | 86.1 |
| COCCNC(=N)NCCC[C@H](O)C(=O)O [M8] | 0.37 | 4.87 |
| COCCNC(=N)NCCC[C@H](O)C(=O)NC(C)=O [M9] | 0.32 | 4.28 |

same assay, conditions: after oral ZST152, total dose 1.158 mg, mouse #3, 24 h urine

| SMILES | % of Dose recovered in urine [%] | Amount Recovered in urine [µg] |
| --- | --- | --- |
| COCCNC(=N)N [M1] | 0.088 | 1.02 |
| COCCNC(=N)NCCCC=O [M2] | 0.023 | 0.27 |
| COCCNC(=N)NCCCCO [M3] | 4.2 | 49.1 |
| COCCNC(=N)NCCCC(=O)O [M4] | 7.6 | 87.8 |
| COCCNC(=N)NCCC[C@H](N)C=NO [M6] | 0.014 | 0.16 |
| COCCNC(=N)NCCC[C@H](N)C(=O)O [M7] | 0.22 | 2.58 |

same assay, conditions: after oral ZST316, total dose 1.308 mg, mouse #3, 24 h urine

| SMILES | % of Dose recovered in urine [%] | Amount Recovered in urine [µg] |
| --- | --- | --- |
| COCCNC(=N)N [M1] | 0.21 | 2.74 |
| COCCNC(=N)NCCCC(=O)O [M4] | 8.2 | 108 |
| COCCNC(=N)NCCC[C@H](N)C(=O)O [M7] | 76 | 991 |
| COCCNC(=N)NCCC[C@H](O)C(=O)O [M8] | 4.1 | 53.4 |
| COCCNC(=N)NCCC[C@H](O)C(=O)NC(C)=O [M9] | 5.4 | 71.0 |
